Values joined by “and” are separate entries in the source; they are usually repeats but may differ in a detail not shown here. Identical values can stand only once.
Key:
[1] = test system: HR+, HER2+ BT474 breast cancer spheroids; test: Multicellular tumor spheroid growth inhibition (SGI), BT474; type: cell-based, human
Description: The purpose of this example was to evaluate the combination effect of PF-07220060 and endocrine therapy in multicellular tumor spheroid growth inhibition (SGI). To model the characteristics and cellular behavior of human tumors, the activity of PF-07220060 was evaluated in three dimensional MCTS models of HR+ breast cancer and AR+ prostate cancer following PF-07220060 treatment as a single agent and in combination with fulvestrant • 1) in HR+, HER2-T47D breast cancer spheroids. • 2) in HR+, HER2+BT474 breast cancer spheroids, • 3) in BT474 spheroids, and • 4) in AR+ prostate carcinoma cell line (LNCaP) prostate cancer spheroids. Spheroids were treated with increasing concentrations of 100, 300, or 1000 nM PF-07220060 and compared to palbociclib at the clinically relevant concentration of 30 nM. Single agent PF-07220060 inhibited spheroid growth in a dose-dependent manner, with highest efficacy (86% SGI over the duration of treatment with 1000 nM) shown in the T47D BC spheroid model (Table 1). Combining 100 nM PF-07220060 with 1 nM fulvestrant in T47D cells increased SGI to 96% compared to either single agent alone (57 to 67% SGI with 100 nM PF-07220060 or 79% SGI with fulvestrant) (Table 1). BT474 spheroids were relatively less sensitive to PF-07220060 resulting in 52% SGI at 1000 nM.

[2] = test system: advanced or metastatic solid tumors; test: Phase 1/1b clinical trial: tumor response (best overall response, RECIST 1.1); type: in vivo, human
Description: The present therapy may result in a complete response (CR), partial response (PR), progressive disease (PD), or stable disease (SD) in patients. Bioimaging can be used to evaluate the level of response to the therapy. Cytology and histology may also be used as needed (e.g., to locate any residual lesions). In some embodiments, the various levels of response can be evaluated in accordance with Table 1 below.
• For Part 1: participant must have evaluable lesion (including skin or bone lesion only). • For Part 2B and Part 2C: participants must have measurable disease as defined per RECIST (Response Evaluation Criteria in Solid Tumors) version 1.1 (Eisenhauer et al., European Journal of Cancer, 2009, 45 (2): 228-47). Tumor lesions previously irradiated or subjected to locoregional therapy will only be deemed measurable if progression at the treated site after completion of therapy is clearly documented.

[3] = Phase 1/1b clinical trial: safety (DLTs, treatment-emergent adverse events); type: in vivo, human
Description: As used herein, “dose limiting toxicity” (DLT) refers to the dosage of PF-07220060 that is contraindicative of a further increase in dosage.
An ongoing open-label, nonrandomized, dose-finding Phase 1/1b Study investigating the safety, tolerability, PK, and PD of PF-07220060 administered as a single agent and when administered in combination with endocrine therapy.
Adverse events of the patients dosed with PF-07220060 in the Phase 1/1b clinical trial were evaluated using the National Cancer Institute Common Terminology Criteria for Adverse Events (NCI CTCAE) version 4.03.

[4] = Part 1D food effect cohort (n = 6)
[5] = Total, all cohorts (27 patients)
[6] = Total, all cohorts (35 patients)
[7] = confirmed best overall response, Part 1D food effect cohort (n = 6)
[8] = confirmed best overall response, Total Part 1A (single agent), 1B, 1C, 1B + 1C, by label
[9] = confirmed best overall response, Total, all cohorts (n = 70)
[10] = 66 participants dosed in Part 1A, 1B, 1C and 1D

For `CC(C)n1c(C(C)(C)O)nc2c(F)cc(-c3nc(N[C@@H]4CCOC[C@H]4O)ncc3Cl)cc21` [PF-07220060, 1,5-anhydro-3-({5-chloro-4-[4-fluoro-2-(2-hydroxypropan-2-yl)-1-(propan-2-yl)-1H-benzimidazol-6-yl]pyrimidin-2-yl}amino)-2,3-dideoxy-D-threo-pentitol], the SGI ([1]; 100 nM single agent) was 9%, the SGI ([1]; 300 nM single agent) was 16% and 26% and 20% and the SGI ([1]; 1000 nM single agent) was 52%. The “Objective Response (CR + PR) for Patients without Breast Cancer, %” value ([2]; Part 1D food effect cohort (5 patients)) was “(20.0) %”, the “Disease Control (CR + PR + SD + Non-CR/Non-PD), %” value [2, 4] was “(50.0) %” and the “Objective Response (CR + PR), %” value [2, 4] was “(16.7) %”. For the same compound, the “Clinical Benefit Response, %” value ([2]; Patients with Breast Cancer (with Measurable Disease at Baseline), Total Part 1A (single agent), 1B, 1C, 1B + 1C, by label) was “(40.0) %”, the “Clinical Benefit Response, %” value ([2]; Patients with Breast Cancer (with Measurable Disease at Baseline), Total, all cohorts (27 patients)) was “(48.1) %” and the “Clinical Benefit Response, %” value ([2]; Patients with Breast Cancer, Total Part 1A (single agent), 1B, 1C, 1B + 1C, by label) was “(25.0) %”. For the same compound, the “Clinical Benefit Response, %” value ([2]; Patients with Breast Cancer, Total, all cohorts (35 patients)) was “(40.0) %”, the “Objective Response (CR + PR) for Patients with Breast Cancer (with Measurable Disease at Baseline), %” value [2, 5] was “(22.2) %” and the “Objective Response (CR + PR) for Patients with prior CDK4/6 inhibitor (with Measurable Disease at Baseline), %” value [2, 5] was “(22.2) %”. The “Objective Response (CR + PR) for Patients with Breast Cancer, %” value [2, 6] was “(17.1) %”, the “Objective Response (CR + PR) for Patients without Breast Cancer, %” value [2, 6] was “(2.9) %” and the “Disease Control (CR + PR + SD + Non-CR/Non-PD), %” value ([2]; Total, all cohorts (n = 70)) was “(65.7) %”. For the same compound, the “Objective Response (CR + PR), %” value ([2]; Total, all cohorts (n = 70)) was “(10.0) %”, the “Disease Control (CR + PR + SD + Non-CR/Non-PD), %” value ([2]; Total, all cohorts (n = 70), listed as PF-06873600) was 65.7% and the “Clinical Benefit Response, %” value ([2]; all evaluable patients, Part 1D food effect cohort (n = 6)) was “(33.3) %”. For the same compound, the “Clinical Benefit Response, %” value ([2]; all evaluable patients, Total Part 1A (single agent), 1B, 1C, 1B + 1C, by label) was “(26.3) %”, the “Clinical Benefit Response, %” value ([2]; all evaluable patients, Total, all cohorts (n = 70)) was “(34.3) %” and the “Non-CR/Non-PD, %” value [2, 7] was “(16.7) %”. The “Not evaluable (NE), %” value [2, 7] was “(16.7) %”, the “Partial response (PR), %” value [2, 7] was “(16.7) %” and the “Progressive disease (PD), %” value [2, 7] was “(33.3) %”. The “Stable disease (SD), %” value [2, 7] was “(16.7) %”, the “Non-CR/Non-PD, %” value [2, 8] was “(10.5) %” and the “Not evaluable (NE), %” value [2, 8] was “(23.7) %”. For the same compound, the “Progressive disease (PD), %” value [2, 8] was “(15.8) %”, the “Stable disease (SD), %” value [2, 8] was “(47.4) %” and the “Complete response (CR), %” value [2, 9] was “(1.4) %”. For the same compound, the “Non-CR/Non-PD, %” value [2, 9] was “(11.4) %”, the “Not evaluable (NE), %” value [2, 9] was “(14.3) %” and the “Partial response (PR), %” value [2, 9] was “(8.6) %”. For the same compound, the “Progressive disease (PD), %” value [2, 9] was “(18.6) %”, the “Stable disease (SD), %” value [2, 9] was “(44.3) %” and the “participants with any treatment-related TEAE, %” value ([3]; 66 participants dosed in Part 1) was 81.8%. The “number of all-causality TEAEs” value [3, 10] was 375, the “participants with all-causality TEAEs, %” value [3, 10] was 89.4% and the “diarrhoea, Grade 3 treatment-related TEAE” value ([3]; Part 1A) was 5.9%. For the same compound, the “thrombocytopenia, Grade 3 treatment-related TEAE” value ([3]; Part 1A) was 5.9%, the “participants with treatment-related TEAE, %” value ([3]; Part 1A (single agent, 34), 1B (13), 1C (13), by label) was 79.4% and the “participants with Grade 5 all-causality TEAE (respiratory failure; unrelated to study drug)” value ([3]; Part 1A, 400 mg BID group) was “One”. The “Grade 4 / Grade 5 all-causality TEAEs” value ([3]; Part 1A, 1B, 1C, by label) was “No Grade 4 TEAEs were reported”, the “Grade 4 / Grade 5 treatment-related TEAEs” value ([3]; Part 1A, 1B, 1C, by label) was “no Grade 4 or Grade 5 treatment-related TEAEs reported” and the “anaemia, Grade 3 treatment-related TEAE” value ([3]; Part 1A, 1B, 1C, by label) was 5.9%. For the same compound, the “leukopenia, Grade 3 treatment-related TEAE” value ([3]; Part 1A, 1B, 1C, by label) was 5.9%.
